Target: T1, Carbamoyl-phosphate synthase small chain (Escherichia coli (strain K12), UniProt P0A6F1)
T1 sequence (P0A6F1 whole entry): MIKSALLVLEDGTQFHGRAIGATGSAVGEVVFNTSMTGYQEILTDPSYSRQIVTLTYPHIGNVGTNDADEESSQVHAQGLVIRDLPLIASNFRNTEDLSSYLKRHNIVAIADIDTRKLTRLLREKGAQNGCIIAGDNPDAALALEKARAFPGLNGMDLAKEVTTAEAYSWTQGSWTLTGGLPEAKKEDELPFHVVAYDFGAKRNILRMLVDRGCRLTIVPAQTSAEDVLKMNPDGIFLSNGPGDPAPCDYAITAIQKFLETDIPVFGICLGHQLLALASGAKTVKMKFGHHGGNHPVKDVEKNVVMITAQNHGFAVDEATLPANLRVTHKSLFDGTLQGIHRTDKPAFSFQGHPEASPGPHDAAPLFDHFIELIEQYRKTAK
Details: pH 7.5; 25 °C

SMILES: O=P(O)(O)OC[C@H]1O[C@@H](n2cnc3c2ncn2ccnc32)[C@H](O)[C@@H]1O [[(2R,3S,4R,5R)-3,4-dihydroxy-5-imidazo[2,1-f]purin-3-yloxolan-2-yl]methyl dihydrogen phosphate]
- Kd: 33 µM

From BindingDB's records for doi:10.1021/bi00421a012 (Pennsylvania State University, 1988)
